SMILES strings stand for the structures. Like-named read-outs stand apart in the source and are kept apart here.

For test [1], the target named is rat orexin 1 receptor (Rattus norvegicus (Rat), UniProt P56718). Description: Rat orexin 1 receptor radioligand binding (competitive binding, HEK293 membranes).
For test [2], the target named is human orexin 1 receptor (Homo sapiens (Human), UniProt O43613). Description: Human orexin 1 receptor radioligand binding (competitive binding, CHO membranes).
Chain of human orexin 1 receptor (O43613 whole entry): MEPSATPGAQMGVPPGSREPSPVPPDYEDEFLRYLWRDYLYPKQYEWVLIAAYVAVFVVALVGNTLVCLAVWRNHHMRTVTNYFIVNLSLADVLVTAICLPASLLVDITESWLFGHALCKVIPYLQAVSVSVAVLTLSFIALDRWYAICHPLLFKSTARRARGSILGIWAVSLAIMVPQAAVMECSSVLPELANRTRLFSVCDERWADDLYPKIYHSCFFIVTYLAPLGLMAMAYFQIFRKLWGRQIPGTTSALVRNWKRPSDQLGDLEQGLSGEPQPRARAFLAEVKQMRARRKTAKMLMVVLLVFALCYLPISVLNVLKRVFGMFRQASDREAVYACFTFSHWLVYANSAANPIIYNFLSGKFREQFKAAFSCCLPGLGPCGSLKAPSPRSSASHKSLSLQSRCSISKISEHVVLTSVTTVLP
In test [3] the target is human orexin 2 receptor (Homo sapiens (Human), UniProt O43614). Description: Human orexin 2 receptor radioligand binding ([3H]-EMPA competition, HEK293 membranes).
Chain of human orexin 2 receptor (O43614 whole entry): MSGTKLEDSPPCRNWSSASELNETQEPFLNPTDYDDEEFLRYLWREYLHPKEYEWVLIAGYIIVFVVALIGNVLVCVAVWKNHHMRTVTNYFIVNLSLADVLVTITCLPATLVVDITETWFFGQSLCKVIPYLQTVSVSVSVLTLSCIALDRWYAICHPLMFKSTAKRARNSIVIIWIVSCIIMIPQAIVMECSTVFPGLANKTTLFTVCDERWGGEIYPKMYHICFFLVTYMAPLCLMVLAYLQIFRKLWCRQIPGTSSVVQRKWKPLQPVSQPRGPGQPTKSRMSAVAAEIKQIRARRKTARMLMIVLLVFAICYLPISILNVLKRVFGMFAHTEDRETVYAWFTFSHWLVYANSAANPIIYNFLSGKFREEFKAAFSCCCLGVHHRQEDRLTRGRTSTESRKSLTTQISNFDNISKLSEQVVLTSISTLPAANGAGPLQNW
The mark [4] stands for this setting: human orexin 2 receptor, Table 2, averages from between 2-20 runs, read-out: hOX2 Ki.
Where [5] appears, read: rat orexin 1 receptor, Table 2, averages from between 2-20 runs, read-out: rOX1 Ki.
Setting [6] is: human orexin 1 receptor, Table 2, averages from between 2-20 runs, read-out: hOX1 Ki.
Setting [7] is: Table 2, further testing, averages from 2-20 runs, read-out: hOX2 Ki.
Setting [8] is: Table 2, further testing, averages from 2-20 runs, read-out: rOX1 Ki.
[9] abbreviates: Table 2, further testing, averages from 2-20 runs, read-out: hOX1 Ki.

Chain of rat orexin 1 receptor (P56718 whole entry): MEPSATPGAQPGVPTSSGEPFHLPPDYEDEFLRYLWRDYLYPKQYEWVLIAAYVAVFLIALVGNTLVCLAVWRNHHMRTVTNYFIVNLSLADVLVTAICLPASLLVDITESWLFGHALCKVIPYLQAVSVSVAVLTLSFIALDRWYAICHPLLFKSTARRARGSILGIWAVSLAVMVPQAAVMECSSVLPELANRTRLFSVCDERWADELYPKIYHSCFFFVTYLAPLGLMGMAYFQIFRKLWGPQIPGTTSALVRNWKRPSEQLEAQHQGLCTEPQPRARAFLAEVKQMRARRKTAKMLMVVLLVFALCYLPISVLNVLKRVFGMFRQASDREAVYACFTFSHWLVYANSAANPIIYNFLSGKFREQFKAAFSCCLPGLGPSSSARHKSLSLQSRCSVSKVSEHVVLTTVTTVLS

For the compound `O=C(c1cccc(F)c1-n1nccn1)N1[C@@H]2CC[C@H]1[C@H](Nc1cnc(Br)cn1)C2` [Example 311, ((1S,2R,4R)-2-((5-bromopyrazin-2-yl)amino)-7-azabicyclo[2.2.1]heptan-7-yl)(3-fluoro-2-(2H-1,2,3-triazol-2-yl)phenyl)methanone], the Ki in test [1] (read-out: rOX1 Ki) worked out at 17 nM; in test [2] (read-out: hOX1 Ki), 21 nM; in test [3] (setting [4]), 1000 nM.

On to `O=C(c1ccccc1-n1nccn1)N1C2CCC1C(Oc1ccc(C(F)(F)F)cn1)C2` (racemic) [Example 421], for which the Ki came out at 205 nM in test [1], 154 nM in test [2] and 4200 nM in test [3] (setting [4]).

For `N#Cc1ccc(N[C@@H]2C[C@H]3CC[C@@H]2N3C(=O)c2cccc(F)c2-c2ncccn2)nc1` [Example 392, 6-(((1S,2R,4R)-7-(3-fluoro-2-(pyrimidin-2-yl)benzoyl)-7-azabicyclo[2.2.1]heptan-2-yl)amino)nicotinonitrile], the Ki in test [1] (setting [5]) is 1000 nM; in test [2] (setting [6]) it was 1400 nM; in test [3] (setting [4]), more than 10000 nM.

In the case of `Cc1cccc(C(=O)N2C3CCC2C(Oc2cnc(C(F)(F)F)cn2)C3)c1-n1nccn1` (racemic) [Example 444], the inhibition constant Ki stood at 165 nM in test [1], 237 nM in test [2] and 4200 nM in test [3].

Consider `Cc1ccc(-n2nccn2)c(C(=O)N2[C@@H]3CC[C@H]2[C@H](Nc2ncc(C(F)(F)F)cc2F)C3)n1` [Example 451, ((1S,2R,4R)-2-((3-fluoro-5-(trifluoromethyl)pyridin-2-yl)amino)-7-azabicyclo[2.2.1]heptan-7-yl)(6-methyl-3-(2H-1,2,3-triazol-2-yl)pyridin-2-yl)methanone], for which the Ki in test [1] (read-out: rOX1 Ki) is 82 nM; in test [2] (read-out: hOX1 Ki), 84 nM; in test [3] (setting [7]) it was 517 nM.

For `O=C(c1c(F)cccc1-c1ncccn1)N1C2CCC1C(Oc1ccc(C(F)(F)F)cn1)C2` (racemic) [Example 431], the Ki was found to be 143 nM in test [1], 180 nM in test [2] and 5100 nM in test [3].

With `O=C(c1ccccc1-c1ncc(F)cn1)N1[C@@H]2CC[C@H]1[C@H](Nc1ccc(C(F)(F)F)cn1)C2` [Example 374, (2-(5-fluoropyrimidin-2-yl)phenyl)((1S,2R,4R)-2-((5-(trifluoromethyl)pyridin-2-yl)amino)-7-azabicyclo[2.2.1]heptan-7-yl)methanone], the inhibition constant (Ki) came to 41 nM in test [1] (read-out: rOX1 Ki), 31 nM in test [2] (read-out: hOX1 Ki) and 921 nM in test [3] (setting [4]).

As to `O=C(c1cccc(Cl)c1-c1ncccn1)N1[C@@H]2CC[C@H]1[C@H](Nc1cnc(C(F)(F)F)cn1)C2` [Example 300, (3-chloro-2-(pyrimidin-2-yl)phenyl)((1S,2R,4R)-2-((5-(trifluoromethyl)pyrazin-2-yl)amino)-7-azabicyclo[2.2.1]heptan-7-yl)methanone], the inhibition constant (Ki) in test [1] (read-out: rOX1 Ki) came to 9 nM; in test [2] (read-out: hOX1 Ki), 9 nM; in test [3] (setting [4]), 93 nM.

With `O=C(c1cccc(F)c1-n1nccn1)N1C2CCC1C(Oc1ccc(C(F)(F)F)cn1)C2` (racemic) [Example 423], the Ki came out at 202 nM in test [1], 174 nM in test [2] and 4870 nM in test [3].

Consider `Cc1cccc(C(=O)N2[C@@H]3CC[C@H]2[C@H](Nc2ncc(C(F)(F)F)cc2F)C3)c1-n1nccn1` [Example 450, ((1S,2R,4R)-2-((3-fluoro-5-(trifluoromethyl)pyridin-2-yl)amino)-7-azabicyclo[2.2.1]heptan-7-yl)(3-methyl-2-(2H-1,2,3-triazol-2-yl)phenyl)methanone], for which the Ki turned out to be 14 nM in test [1] (setting [8]), 32 nM in test [2] (setting [9]) and 340 nM in test [3] (setting [7]).

`Cc1ccc(-c2ncccn2)c(C(=O)N2[C@@H]3CC[C@H]2[C@H](Nc2ncc(C(F)(F)F)cc2F)C3)n1` [Example 456, ((1S,2R,4R)-2-((3-fluoro-5-(trifluoromethyl)pyridin-2-yl)amino)-7-azabicyclo[2.2.1]heptan-7-yl)(6-methyl-3-(pyrimidin-2-yl)pyridin-2-yl)methanone]: the figures for the Ki in test [1] (read-out: rOX1 Ki), in test [2] (read-out: hOX1 Ki) and in test [3] (setting [7]) were 68 nM, 48 nM and 454 nM, respectively.

Consider `O=C(c1cccc(F)c1-c1ncccn1)N1[C@@H]2CC[C@H]1[C@H](Nc1ncc(C(F)(F)F)cc1F)C2` [Example 382, (3-fluoro-2-(pyrimidin-2-yl)phenyl)((1S,2R,4R)-2-((3-fluoro-5-(trifluoromethyl)pyridin-2-yl)amino)-7-azabicyclo[2.2.1]heptan-7-yl)methanone], for which the Ki was 18 nM in test [1] (setting [5]), 15 nM in test [2] (setting [6]) and 1100 nM in test [3] (setting [4]).

Regarding `O=C(c1cc(F)ccc1-c1ncccn1)N1[C@@H]2CC[C@H]1[C@H](Nc1ccc(C(F)(F)F)cn1)C2` [Example 371, (5-fluoro-2-(pyrimidin-2-yl)phenyl)((1S,2R,4R)-2-((5-(trifluoromethyl)pyridin-2-yl)amino)-7-azabicyclo[2.2.1]heptan-7-yl)methanone], the Ki stood at 42 nM in test [1] (setting [5]), 27 nM in test [2] (setting [6]) and 615 nM in test [3] (setting [4]).

For `O=C(c1cccc(F)c1-c1ncco1)N1C2CCC1C(Oc1ccc(C(F)(F)F)cn1)C2` (racemic) [Example 436], the Ki in test [1] (setting [5]) stood at 143 nM; in test [2] (setting [6]), 116 nM; in test [3], 3500 nM.

As to `Cc1cccc(C(=O)N2[C@@H]3CC[C@H]2[C@H](Nc2ncc(C(F)(F)F)cc2F)C3)c1-c1ncccn1` [Example 462, ((1S,2R,4R)-2-((3-fluoro-5-(trifluoromethyl)pyridin-2-yl)amino)-7-azabicyclo[2.2.1]heptan-7-yl)(3-methyl-2-(pyrimidin-2-yl)phenyl)methanone], the figures for the Ki in test [1] (setting [8]), in test [2] (setting [9]) and in test [3] (setting [7]) were 18 nM, 31 nM and 339 nM, respectively.

`O=C(c1cccc(F)c1-c1ncco1)N1[C@@H]2CC[C@H]1[C@H](Nc1ccc(C(F)(F)F)cn1)C2` [Example 298, (3-fluoro-2-(oxazol-2-yl)phenyl)((1S,2R,4R)-2-((5-(trifluoromethyl)pyridin-2-yl)amino)-7-azabicyclo[2.2.1]heptan-7-yl)methanone]: the values for the Ki in test [1] (setting [5]), in test [2] (setting [6]) and in test [3] (setting [4]) were 18 nM, 18 nM and 500 nM, respectively.

Consider `Cc1cccc(C(=O)N2[C@@H]3CC[C@H]2[C@H](Nc2ccc(C#N)cn2)C3)c1-c1ncccn1` [Example 393, 6-(((1S,2R,4R)-7-(3-methyl-2-(pyrimidin-2-yl)benzoyl)-7-azabicyclo[2.2.1]heptan-2-yl)amino)nicotinonitrile], for which the inhibitory constant (Ki) in test [1] (setting [5]) was found to be 500 nM; in test [2] (setting [6]), 323 nM; in test [3] (setting [4]), 8300 nM.

`Cc1cccc(C(=O)N2C3CCC2C(Oc2ccc(C(F)(F)F)cn2)C3)c1-n1nccn1` (racemic) [Example 422]: the Ki is 91 nM in test [1] (setting [5]), 57 nM in test [2] (setting [6]) and 2150 nM in test [3] (setting [4]).
